From ChEMBL document CHEMBL1143615, “Synthesis and structure-activity relationship of fluoro analogues of 8-{2-[4-(4-methoxyphenyl)piperazin-1yl]ethyl}-8-azaspiro[4.5]decane-7,9-dione as selective alpha(1d)-adrenergic receptor antagonists” (J Med Chem, 2005)

Columns and labels:
[1] = biological target: T1, Alpha-1B adrenergic receptor (Homo sapiens, UniProt P35368); experiment: Binding affinity for human Alpha-1B adrenergic receptor
T1 sequence (P35368 whole entry): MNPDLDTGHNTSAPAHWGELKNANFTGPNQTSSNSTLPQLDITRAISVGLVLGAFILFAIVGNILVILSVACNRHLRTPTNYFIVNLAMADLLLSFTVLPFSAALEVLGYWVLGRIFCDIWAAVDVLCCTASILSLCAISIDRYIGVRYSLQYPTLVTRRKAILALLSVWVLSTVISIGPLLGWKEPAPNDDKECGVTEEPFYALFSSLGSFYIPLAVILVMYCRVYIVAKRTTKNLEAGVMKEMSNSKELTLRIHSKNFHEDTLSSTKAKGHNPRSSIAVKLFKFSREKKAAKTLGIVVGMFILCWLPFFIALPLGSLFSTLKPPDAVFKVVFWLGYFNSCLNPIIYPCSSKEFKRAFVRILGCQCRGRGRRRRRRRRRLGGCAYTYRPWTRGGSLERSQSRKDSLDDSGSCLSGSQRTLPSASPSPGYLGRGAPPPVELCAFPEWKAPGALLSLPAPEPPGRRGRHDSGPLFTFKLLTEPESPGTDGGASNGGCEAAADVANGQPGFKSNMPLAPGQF

[2] = biological target: T2, Alpha-1A adrenergic receptor (Homo sapiens, UniProt P35348); experiment: Binding affinity for human Alpha-1A adrenergic receptor
T2 sequence (P35348 whole entry): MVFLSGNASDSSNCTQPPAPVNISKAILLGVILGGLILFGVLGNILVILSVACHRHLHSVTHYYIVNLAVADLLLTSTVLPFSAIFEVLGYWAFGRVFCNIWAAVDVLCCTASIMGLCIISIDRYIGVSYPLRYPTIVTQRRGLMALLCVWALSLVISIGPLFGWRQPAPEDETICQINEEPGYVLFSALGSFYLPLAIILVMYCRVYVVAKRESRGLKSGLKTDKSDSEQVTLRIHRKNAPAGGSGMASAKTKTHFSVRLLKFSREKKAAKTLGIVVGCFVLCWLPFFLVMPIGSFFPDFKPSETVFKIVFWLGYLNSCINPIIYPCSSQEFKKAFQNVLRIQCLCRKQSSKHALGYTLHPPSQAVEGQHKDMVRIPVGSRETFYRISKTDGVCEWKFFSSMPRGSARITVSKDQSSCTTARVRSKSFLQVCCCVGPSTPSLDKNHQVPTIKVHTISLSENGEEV

D(3) dopamine receptor = D(3) dopamine receptor (Rattus norvegicus, UniProt P19020); experiment: Binding affinity for rat Dopamine receptor D3
D(2) dopamine receptor = D(2) dopamine receptor (Homo sapiens, UniProt P14416); experiment: Binding affinity for human Dopamine receptor D2
[3] = biological target: T3, 5-hydroxytryptamine receptor 1A (Homo sapiens, UniProt P08908)
T3 sequence (P08908 whole entry): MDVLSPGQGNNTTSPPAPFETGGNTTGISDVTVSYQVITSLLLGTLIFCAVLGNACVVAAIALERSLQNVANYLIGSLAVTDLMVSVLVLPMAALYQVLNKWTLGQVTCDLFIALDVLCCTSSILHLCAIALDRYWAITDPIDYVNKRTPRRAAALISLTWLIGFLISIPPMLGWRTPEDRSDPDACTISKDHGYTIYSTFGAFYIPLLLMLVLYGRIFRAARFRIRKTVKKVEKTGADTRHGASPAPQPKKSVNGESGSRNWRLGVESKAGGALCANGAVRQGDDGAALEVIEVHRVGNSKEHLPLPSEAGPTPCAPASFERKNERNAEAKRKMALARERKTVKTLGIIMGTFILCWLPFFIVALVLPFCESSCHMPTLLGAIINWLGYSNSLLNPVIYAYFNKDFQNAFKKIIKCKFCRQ
Description: Binding affinity for human 5-hydroxytryptamine 1A receptor

[4] = biological target: T4, Alpha-1D adrenergic receptor (Homo sapiens, UniProt P25100); experiment: Binding affinity for human Alpha-1D adrenergic receptor
T4 sequence (P25100 whole entry): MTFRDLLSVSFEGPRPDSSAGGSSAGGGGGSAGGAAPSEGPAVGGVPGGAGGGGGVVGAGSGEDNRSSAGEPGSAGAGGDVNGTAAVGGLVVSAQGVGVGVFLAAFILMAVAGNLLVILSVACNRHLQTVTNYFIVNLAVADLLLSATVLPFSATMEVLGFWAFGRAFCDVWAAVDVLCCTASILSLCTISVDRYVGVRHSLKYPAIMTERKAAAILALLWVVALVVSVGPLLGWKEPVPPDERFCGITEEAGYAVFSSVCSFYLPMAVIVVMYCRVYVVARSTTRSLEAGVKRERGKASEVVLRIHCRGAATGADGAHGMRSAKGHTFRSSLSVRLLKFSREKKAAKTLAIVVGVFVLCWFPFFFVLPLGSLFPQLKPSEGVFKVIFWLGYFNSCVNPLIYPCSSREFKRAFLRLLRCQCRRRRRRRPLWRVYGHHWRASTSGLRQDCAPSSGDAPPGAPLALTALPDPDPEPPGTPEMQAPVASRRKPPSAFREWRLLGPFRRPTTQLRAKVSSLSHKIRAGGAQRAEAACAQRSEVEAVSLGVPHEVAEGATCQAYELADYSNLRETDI

Chain of D(2) dopamine receptor (P14416 whole entry): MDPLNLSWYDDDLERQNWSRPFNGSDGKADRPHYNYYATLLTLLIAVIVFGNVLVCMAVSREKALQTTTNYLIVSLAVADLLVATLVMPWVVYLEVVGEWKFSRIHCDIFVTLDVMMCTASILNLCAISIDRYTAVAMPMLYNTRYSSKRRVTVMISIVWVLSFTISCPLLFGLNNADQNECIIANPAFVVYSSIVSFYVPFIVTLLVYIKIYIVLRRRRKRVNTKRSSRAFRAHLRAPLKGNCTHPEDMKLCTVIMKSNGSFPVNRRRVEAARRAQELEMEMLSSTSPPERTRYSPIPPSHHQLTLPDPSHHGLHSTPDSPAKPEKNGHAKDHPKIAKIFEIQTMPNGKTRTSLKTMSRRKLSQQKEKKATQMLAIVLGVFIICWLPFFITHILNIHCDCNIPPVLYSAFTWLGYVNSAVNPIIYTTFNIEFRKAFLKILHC
Chain of D(3) dopamine receptor (P19020 whole entry): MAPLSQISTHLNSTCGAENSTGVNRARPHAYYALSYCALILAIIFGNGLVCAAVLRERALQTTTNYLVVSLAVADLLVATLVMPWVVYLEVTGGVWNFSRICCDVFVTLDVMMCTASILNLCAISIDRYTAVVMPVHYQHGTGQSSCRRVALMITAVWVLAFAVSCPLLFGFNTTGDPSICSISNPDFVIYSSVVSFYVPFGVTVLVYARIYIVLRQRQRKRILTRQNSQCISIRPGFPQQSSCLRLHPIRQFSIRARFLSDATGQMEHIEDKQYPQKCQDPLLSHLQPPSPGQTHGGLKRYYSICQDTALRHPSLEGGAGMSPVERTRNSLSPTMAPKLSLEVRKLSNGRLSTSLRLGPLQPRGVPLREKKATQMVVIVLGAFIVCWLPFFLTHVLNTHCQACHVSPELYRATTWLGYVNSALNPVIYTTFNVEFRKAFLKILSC

Structure (SMILES)	Ki [1]	Ki [2]	Ki (D(3) dopamine receptor)	Ki (D(2) dopamine receptor)	Ki [3]	Ki [4]
C[C@@H](CN1CCN(c2cc(F)c(F)cc2F)CC1)N1C(=O)CC2(CCCC2)CC1=O	–	–	–	–	–	124 nM
O=C1CC2(CCCC2)CC(=O)N1CCN1CCN(c2ccccc2F)CC1	67 nM	–	5.2 nM	140 nM	–	–
C[C@H](CN1CCN(c2cc(F)c(F)cc2F)CC1)N1C(=O)CC2(CCCC2)CC1=O	–	14000 nM	120 nM	580 nM	–	–
COc1ccccc1N1CCN(CCN2C(=O)CC3(CCCC3)CC2=O)CC1 [BMY-7378]	–	–	3.1 nM	14 nM	0.46 nM	–

The remaining lines, values ahead:

Ki [1]	Ki [2]	Ki (D(3) dopamine receptor)	Ki (D(2) dopamine receptor)	Ki [3]	Ki [4]	Structure (SMILES)
1400 nM	4100 nM	160 nM	2200 nM	55 nM	–	O=C1CC2(CCCC2)CC(=O)N1CCN1CCN(c2ccc(F)c(F)c2)CC1
380 nM	4400 nM	23 nM	700 nM	360 nM	1.9 nM	O=C1CC2(CCCC2)CC(=O)N1CCN1CCN(c2cc(F)c(F)cc2F)CC1
1100 nM	3800 nM	–	–	24 nM	5.6 nM	O=C1CC2(CCCC2)CC(=O)N1CCN1CCN(c2ccc(F)cc2F)CC1
54 nM	–	8.1 nM	120 nM	–	0.95 nM	O=C1CC2(CCCC2)CC(=O)N1CCN1CCN(c2cc(F)ccc2F)CC1
255 nM	620 nM	91 nM	2200 nM	54 nM	14 nM	O=C1CC2(CCCC2)CC(=O)N1CCN1CCN(c2ccc(F)cc2)CC1
